Test results from ChEMBL document CHEMBL5303304, “EUbOPEN Chemogenomics Library - IncuCyte” (2023).

What was measured:
Format in all cases: toxicity, cell-based
U2OS = assay: Incucyte cell viability with U2OS; conditions: human, 10 µM, compound concentration 10 uM
Fibroblast = assay: Incucyte cell viability with human fibroblast; conditions: 10 µM, compound concentration 10 uM
HEK-293T = assay: Incucyte cell viability with HEK293T; conditions: human, 10 µM, compound concentration 10 uM
Note: unitless GR value; below 1 slowed growth and below 0 cell loss.

Row | SMILES | Growth Rate (U2OS; 12 h, replicate number 1) | Growth Rate (U2OS; 18 h, replicate number 1) | Growth Rate (U2OS; 18 h, replicate number 2) | Growth Rate (U2OS; 24 h, replicate number 1) | Growth Rate (U2OS; 24 h, replicate number 2) | Growth Rate (Fibroblast; 0 h, replicate number 1) | Growth Rate (Fibroblast; 24 h, replicate number 1) | Growth Rate (Fibroblast; 24 h, replicate number 2) | Growth Rate (HEK-293T; 0 h, replicate number 2) | Growth Rate (HEK-293T; 6 h, replicate number 1) | Growth Rate (HEK-293T; 6 h, replicate number 2) | Growth Rate (HEK-293T; 12 h, replicate number 1) | Growth Rate (HEK-293T; 12 h, replicate number 2) | Growth Rate (HEK-293T; 18 h, replicate number 1) | Growth Rate (HEK-293T; 18 h, replicate number 2) | Growth Rate (HEK-293T; 24 h, replicate number 1) | Growth Rate (HEK-293T; 24 h, replicate number 2) | Growth Rate (U2OS; 6 h, replicate number 2) | Growth Rate (U2OS; 12 h, replicate number 2) | Growth Rate (Fibroblast; 12 h, replicate number 2) | other results
1 | CS(=O)(=O)c1ccc(-c2cnc(N)c(C(=O)Nc3ccccc3)n2)cc1 | 0.87 | 0.77 | 0.93 | 0.88 | 0.77 | -0.93 | 0.85 | 0.74 | 0.8 | -0.29 | -0.17 | -0.15 | -0.14 | 0.01 | -0.07 | 0.07 | 0.05 |  |  |  | 
2 | Cc1cc(OC2CCS(=O)(=O)CC2)cc(C)c1-c1cccc(COc2ccc(CCC(=O)O)c(F)c2)c1 | 0.88 | 0.96 | 0.99 | 0.92 | 0.87 | -0.63 |  |  | 0.14 | 0.99 |  |  |  | 0.99 |  | 0.94 | 0.96 | 0.78 | 0.91 | 0.88 | Growth Rate (Fibroblast; 0 h, replicate number 2): 0; Growth Rate (Fibroblast; 12 h, replicate number 1): 0.64; Growth Rate (Fibroblast; 18 h, replicate number 1): 0.84
3 | Cn1cc(-c2ccc(-c3cncc(Cl)c3N3CCC4(CCNC4=O)CC3)cc2)cn1 | 0.59 | 0.96 |  |  |  |  | 0.49 | 0.8 | 0.95 | 0.13 | 0.24 | 0.3 | 0.63 | 0.34 | 0.67 | 0.5 | 0.67 |  |  |  | Growth Rate (U2OS; 0 h, replicate number 2): 0.82; Growth Rate (U2OS; 6 h, replicate number 1): 0.58; Growth Rate (Fibroblast; 0 h, replicate number 2): -0.3; Growth Rate (Fibroblast; 6 h, replicate number 1): 0.61; Growth Rate (Fibroblast; 12 h, replicate number 1): 0.75; Growth Rate (Fibroblast; 18 h, replicate number 1): 0.56; Growth Rate (Fibroblast; 18 h, replicate number 2): 0.87
4 | CN(C)C/C=C/C(=O)Nc1ccc(C(=O)Nc2cccc(Nc3ncc(Cl)c(-c4c[nH]c5ccccc45)n3)c2)cc1 |  | 0.29 | 0.55 | 0.16 | 0.28 |  |  | 0.7 | -0.53 |  |  |  |  |  |  |  |  |  | 0.57 |  | Growth Rate (U2OS; 0 h, replicate number 1): -1
5 | COc1ccc(CC[C@@H](OC(=O)[C@@H]2CCCCN2C(=O)[C@H](c2cc(OC)c(OC)c(OC)c2)C2CCCCC2)c2cccc(OCCN3CCOCC3)c2)cc1OC |  |  | 0.78 |  | 0.73 | -1 | 0.97 |  | -0.44 |  |  |  | 0.38 | 0.94 | 0.26 | 0.27 | 0.24 | 0.91 | 0.8 | 0.99 | Growth Rate (U2OS; 0 h, replicate number 1): -1; Growth Rate (U2OS; 0 h, replicate number 2): -0.99
6 | CC(C)c1cnc(NC(=O)Cc2ccccc2)s1 | 0.87 | 0.77 | 0.97 | 0.89 | 0.77 | -0.99 | 0.92 | 0.99 | 1 | 0.76 | 0.51 | 0.86 | 0.69 | 0.8 | 0.68 | 0.73 | 0.69 |  | 0.72 |  | Growth Rate (U2OS; 0 h, replicate number 2): 0.72; Growth Rate (U2OS; 6 h, replicate number 1): 0.54; Growth Rate (Fibroblast; 6 h, replicate number 2): 0.95; Growth Rate (Fibroblast; 18 h, replicate number 2): 1
7 | COc1c(-c2cn(C3CCC(=O)NC3=O)nn2)csc1C(=O)N1CCCC1 (stereo not given) | 0.85 | 0.92 |  |  |  | -1 |  | 0.97 | 0.78 | 0.29 | 0.71 | 0.77 | 0.89 | 0.73 | 0.9 | 0.9 | 1 |  |  |  | Growth Rate (U2OS; 6 h, replicate number 1): 0.89; Growth Rate (Fibroblast; 6 h, replicate number 2): 0.73; Growth Rate (Fibroblast; 18 h, replicate number 2): 0.92
8 | Cc1cn([C@@H](C)CC#N)c(=O)c2cc(Cn3nc(C(F)F)cc3Cl)nn12 | 0.51 | 0.6 | 0.88 | 0.73 | 0.78 |  | 0.85 |  | 0.77 | 0.53 | 0.84 | 0.72 | 0.81 | 0.89 | 0.77 | 0.92 | 0.81 |  | 0.71 | 0.66 | Growth Rate (U2OS; 6 h, replicate number 1): 0.19; Growth Rate (Fibroblast; 6 h, replicate number 2): 0.71; Growth Rate (Fibroblast; 18 h, replicate number 2): 0.99
9 | Cc1cc(OC2CCS(=O)(=O)CC2)cc(C)c1-c1cccc(COc2ccc(C(=O)O)c(F)c2)c1 | 0.61 | 0.85 | 0.77 | 0.98 | 0.75 | -0.85 |  | 0.92 | 0.65 |  |  |  | 0.96 | 0.96 | 0.88 | 0.9 | 0.84 | 0.65 | 0.49 | 0.57 | Growth Rate (U2OS; 0 h, replicate number 2): 0.93; Growth Rate (U2OS; 6 h, replicate number 1): 0.56; Growth Rate (Fibroblast; 6 h, replicate number 1): 0.86
10 | COc1ccc(CC[C@@H](OC(=O)[C@H]2CCCCN2C(=O)[C@@H](c2cc(OC)c(OC)c(OC)c2)C2CCCCC2)c2cccc(OCCN3CCOCC3)c2)cc1OC |  | 0.98 | 0.99 |  | 0.87 | -0.89 | 0.99 |  | -0.05 |  |  |  | 0.72 |  | 0.52 | 0.74 | 0.49 | -0.94 |  |  | Growth Rate (U2OS; 0 h, replicate number 2): -1
11 | N#Cc1ccc(COc2ccc(Br)cc2CNCCO)cn1.O=CO | 1 |  |  |  |  |  |  | 0.89 | 0.83 |  |  |  |  | 1 |  |  |  |  |  | 0.87 | Growth Rate (Fibroblast; 6 h, replicate number 2): 0.73; Growth Rate (Fibroblast; 12 h, replicate number 1): 0.85; Growth Rate (Fibroblast; 18 h, replicate number 2): 0.6
12 | COc1cc(-c2cc3ncccc3c(OC[C@H]3CNC(=O)C3)n2)cc(OC)c1OC1CCOCC1.O=C(O)C(F)(F)F | 0.72 | 0.76 | 0.85 | 0.68 | 0.75 | 0.4 |  | 0.94 | 0.5 | 0.2 | -0.14 | 0.17 | 0.16 | 0.25 | 0.34 | 0.33 | 0.49 | 0.88 | 0.93 | 0.78 | Growth Rate (U2OS; 0 h, replicate number 1): -0.63; Growth Rate (Fibroblast; 6 h, replicate number 1): 0.72; Growth Rate (Fibroblast; 6 h, replicate number 2): 0.67; Growth Rate (Fibroblast; 18 h, replicate number 1): 1; Growth Rate (Fibroblast; 18 h, replicate number 2): 0.92
13 | CN(C)C(=O)c1cc2cnc(Nc3ccc(N4CCN(CCCCNC(=O)COc5cccc6c5C(=O)N(C5CCC(=O)NC5=O)C6=O)CC4)cn3)nc2n1C1CCCC1 (stereo not given) |  | 0.93 |  | 0.95 |  | -1 |  |  | 0.78 | 0.52 | 0.46 |  | 0.81 | 0.88 | 0.67 | 1 | 0.81 | 0.65 |  |  | Growth Rate (U2OS; 0 h, replicate number 1): -1; Growth Rate (U2OS; 0 h, replicate number 2): 0.74
14 | CN(C)[C@H]1CC[C@H](Nc2ncc3ncnc(Nc4ccc(F)c(Cl)c4)c3n2)CC1 | 0.48 | 0.38 | 0.48 | 0.45 | 0.47 |  | 0.14 | -0.13 | -1 | -0.21 |  | -0.11 |  | 0.12 |  | 0.23 |  | 0.45 | 0.5 | -0.1 | Growth Rate (U2OS; 0 h, replicate number 1): -1; Growth Rate (U2OS; 0 h, replicate number 2): 0.58; Growth Rate (Fibroblast; 0 h, replicate number 2): -1; Growth Rate (Fibroblast; 6 h, replicate number 1): 0.74; Growth Rate (Fibroblast; 6 h, replicate number 2): 0.19; Growth Rate (Fibroblast; 12 h, replicate number 1): 0.23; Growth Rate (Fibroblast; 18 h, replicate number 1): 0.14; Growth Rate (Fibroblast; 18 h, replicate number 2): -0.19
